Experimental data: patent US9206200B2, “N-linked lactam M1 receptor positive allosteric mogulators” (Merck Sharp & Dohme Corp., priority 2011, dated 2015)
pEC50: −log10 of the molar value.

target: T1, acetylcholine muscarinic M1 receptor (Homo sapiens, UniProt P11229); assay: muscarinic FLIPR assay: intracellular calcium in CHOnfat/hM1 cells, potentiation of EC20 acetylcholine; format: cell-based; conditions: Table 1; CHOnfat/hM1 cells, FLIPR, EC20 acetylcholine (3 nM final); read-out: M1 Pot.
T1 construct: expressed in transfected cells; host or cells: CHOnfat cells (CHO cells with an NFAT reporter) expressing hM1, kept under Geneticin selection
T1 sequence (P11229 1-460): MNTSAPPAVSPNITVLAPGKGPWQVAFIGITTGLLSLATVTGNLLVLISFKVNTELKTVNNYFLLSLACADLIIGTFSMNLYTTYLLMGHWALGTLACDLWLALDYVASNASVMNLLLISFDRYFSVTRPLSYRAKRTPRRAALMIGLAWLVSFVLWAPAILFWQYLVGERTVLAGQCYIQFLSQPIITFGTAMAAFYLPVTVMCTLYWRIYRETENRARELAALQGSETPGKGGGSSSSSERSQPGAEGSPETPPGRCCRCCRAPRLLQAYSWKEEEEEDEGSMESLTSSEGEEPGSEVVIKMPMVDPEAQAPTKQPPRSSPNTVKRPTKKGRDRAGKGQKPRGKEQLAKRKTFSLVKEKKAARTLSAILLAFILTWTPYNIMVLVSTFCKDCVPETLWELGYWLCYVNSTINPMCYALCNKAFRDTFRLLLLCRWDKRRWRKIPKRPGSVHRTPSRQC
Method: The assay studies the effect of one or several concentrations of test compounds on basal or acetylcholine-stimulated Ca^2+ levels using FLIPR.
Compounds are prepared and subjected to a preincubation period of […]. Thereafter, a single EC20 concentration of acetylcholine is added to each well (3 nM final). The intracellular Ca^2+ level of each sample is measured and compared to an acetylcholine control to determine any modulatory activity.
Cells: CHOnfat/hM1, hM2, hM3 or hM4 cells are plated 24 hr before the assay at a density of 18,000 cells/well (100 μL) in a 384 well plate. CHOnfat/hM1 and CHOnfat/hM3 Growth Medium: 90% DMEM (Hi Glucose); 10% HI FBS; 2 mM L-glutamine; 0.1 mM NEAA; Pen-Strep; and 1 mg/ml Geneticin, are added. For M2Gqi5CHOnfat and M4Gqi5CHOnfat cells, an additional 600 ug/ml hygromycin is added.
Equipment: 384 well plate, 120 μl, addition plate; 96-well Whatman 2 ml Uniplate Incubator, 37° C., 5% CO2; Skatron EMBLA-384 Plate Washer; Multimek Pipetting System; Genesis Freedom 200 System; Mosquito System; Temo Nanolitre Pipetting System; and FLIPR^384 Fluorometric Imaging Plate Reader System are used.
Buffers. Assay Buffer: Hanks Balanced Salt Solution, with 20 mM Hepes, 2.5 mM Probenecid (Sigma P-8761) first dissolved in 1 N NaOH, 1% Bovine Serum Albumin (Sigma A-9647). Dye Loading Buffer: Assay Buffer plus 1% Fetal Bovine Serum and Fluo-4AM/Pluronic Acid Mixture. 2 mM Fluo-4AM ester stock in DMSO (Molecular Probes F-14202) Concentration of 2 μM in buffer for a final concentration of 1 μM in Assay. 20% Pluronic Acid Solution stock, with concentration of 0.04% in Buffer, 0.02% in Assay.
65 μL of 2 mM Fluo-4AM are mixed with 130 μL of 20% Pluronic Acid. The resulting solution and 650 μL FBS is added to the assay buffer for a total volume of 65 mL. Positive Controls: 4-Br-A23187: 10 mM in DMSO; final concentration 10 μM. Acetylcholine: 10 mM in water, working stock at both 20 μM and 30 μM in assay buffer, final concentration of 10 μM. This is used to check the maximum stimulation of the CHOK1/hM1 cells. 20 μM (2×) acetylcholine is added in the preincubation part of the assay, and the 30 μM (3×) stock is added in the second part. (EC20)Acetylcholine: 10 mM in water, working stock of 9 nM (3×), and final concentration in assay is 3 nM. This is used after the preincubation with test compounds. Addition of the EC20 Acetylcholine to each well with a test compound will ascertain any modulator activity. 24 wells contain 3 nM Acetylcholine alone as a control.
Determining Activity of Putative Compounds:
Screening Plate Compounds are titrated in 96-well plates (columns 2-11), 100% DMSO, started at a concentration of 15 mM (150× stock concentration), and 3-fold serial dilutions using Genesis Freedom200 System. Four 96-well plates are combined into a 384-well plate using Mosquito Nanolitre Pipetting System by transferring 1 μl of serial diluted compounds to each well, and 1 mM acetylcholine (100× stock concentration) were added as a control. Using Temo, 49 μl assay buffer is added to each well of the 384-well plate right before assay.
In a 96-well Whatman 2 ml Uniplate, 9 nM Acetylcholine (3×) is pipetted into wells corresponding to the screening compounds, and into control wells. The 30 μM acetylcholine control (3×) is added into control wells, and the 3× agonist plate is transferred into a 384 well plate.
Cells are washed three times with 100 μL of buffer, leaving […] of buffer in each well. Using Multimek, 30 μL of Dye Loading Buffer is added into each well and incubated at 37° C., 5% CO2 for up to one hr.
After 60 min, the cells are washed three times with 100 μL of buffer, leaving 30 μL of buffer in each well. The cell plate, screening plate, and agonist addition plates are placed on the platform in the FLIPR and the door closed. A signal test to check background fluorescence and basal fluorescence signal is performed. Laser intensity is adjusted if necessary.

Question: With `CS(=O)(=O)N1CCN(Cc2cc3c(c4ccccc24)CN(C2CCCCC2O)C3=O)CC1` (stereo not drawn) [Example 15, 2-(2-hydroxycyclohexyl)-5-{[4-(methylsulfonyl)piperazin-1-yl]methyl}-1,2-dihydro-3H-benzo[e]isoindol-3-one] as the compound, how does the pEC50 read?
Answer: 6.14

Question: `CC1CCCN(Cc2cc3c(c4ccccc24)CN(C2CCCCC2O)C3=O)C1` (stereo not drawn) [Example 16, 2-(2-hydroxycyclohexyl)-5-[(3-methylpiperidin-1-yl)methyl]-1,2-dihydro-3H-benzo[e]isoindol-3-one] was tested. Which pEC50 did it give?
Answer: 5.11

Question: With `O=C1c2cc(CN3CCCC(F)C3)c3ccccc3c2CN1C1CCCCC1O` (stereo not drawn) [Example 17, 5-[(3-fluoropiperidin-1-yl)methyl]-2-(2-hydroxycyclohexyl)-1,2-dihydro-3H-benzo[e]isoindol-3-one] as the compound, how does the pEC50 read?
Answer: 6.49

Question: With `O=C1c2cc(CN3CCCC(F)(F)C3)c3ccccc3c2CN1C1CCCCC1O` (stereo not drawn) [Example 18, 5-[(3,3-difluoropiperidin-1-yl)methyl]-2-(2-hydroxycyclohexyl)-1,2-dihydro-3H-benzo[e]isoindol-3-one] as the compound, how does the pEC50 read?
Answer: 6.80

Question: How did the pEC50 turn out when `N#CC1(F)CCN(Cc2cc3c(c4ccccc24)CN([C@H]2CCCC[C@@H]2O)C3=O)CC1` [Example 19, 4-fluoro-1-({2-[(1S,2S)-2-hydroxycyclohexyl]-3-oxo-2,3-dihydro-1H-benzo[e]isoindol-5-yl}methyl)piperidine-4-carbonitrile] was run?
Answer: 7.43

Question: `N#CC1CCN(Cc2cc3c(c4ccccc24)CN([C@H]2CCCC[C@@H]2O)C3=O)CC1` [Example 20, 1-({2-[(1S,2S)-2-hydroxycyclohexyl]-3-oxo-2,3-dihydro-1H-benzo[e]isoindol-5-yl}methyl)piperidine-4-carbonitriIe] was tested. Which pEC50 did it give?
Answer: 7.03

Question: With `CC1CCN(Cc2cc3c(c4ccccc24)CN([C@H]2CCCC[C@@H]2O)C3=O)CC1` [Example 21, 2-[(1S,2S)-2-hydroxycyclohexyl]-5-[(4-methylpiperidin-1-yl)methyl]-1,2-dihydro-3H-benzo[e]isoindol-3-one] as the compound, how does the pEC50 read?
Answer: 5.82

Question: How did the pEC50 turn out when `O=C1c2cc(CN3CCC(O)CC3)c3ccccc3c2CN1C1CCCCC1O` (stereo not drawn) [Example 22, 2-(2-hydroxycyclohexyl)-5-[(4-hydroxypiperidin-1-yl)methyl]-1,2-dihydro-3H-benzo[e]isoindol-3-one] was run?
Answer: 6.32

Question: `O=C1c2cc(CN3CCCC3)c3ccccc3c2CN1C1CCCCC1O` (stereo not drawn) [Example 23, 2-(2-Hydroxycyclohexyl)-5-(pyrrolidin-1-ylmethyl)-1,2-dihydro-3H-benzo[e]isoindol-3-one] was tested. Which pEC50 did it give?
Answer: 5.42

Question: How did the pEC50 turn out when `O=C1c2cc(CN3CCOCC3)c3ccccc3c2CN1C1CCCCC1O` (stereo not drawn) [Example 24, 2-(2-hydroxycyclohexyl)-5-(morpholin-4-ylmethyl)-1,2-dihydro-3H-benzo[e]isoindol-3-one] was run?
Answer: 6.82

Question: How did the pEC50 turn out when `O=C1c2cc(CN3CCC(F)(F)CC3)c3ccccc3c2CN1C1CCCCC1O` (stereo not drawn) [Example 25, 5-[(4,4-difluoropiperidin-1-yl)methyl]-2-(2-hydroxycyclohexyl)-1,2-dihydro-3H-benzo[e]isoindol-3-one] was run?
Answer: 7.92

Question: `O=C1c2cc(CN3CCC(F)CC3)c3ccccc3c2CN1C1CCCCC1O` (stereo not drawn) [Example 26, 5-[(4-fluoropiperidin-1-yl)methyl]-2-(2-hydroxycyclohexyl)-1,2-dihydro-3H-benzo[e]isoindol-3-one] was tested. Which pEC50 did it give?
Answer: 6.80

Question: How did the pEC50 turn out when `O=C1c2cc(CN3CCC(C(F)(F)F)CC3)c3ccccc3c2CN1C1CCCCC1O` (stereo not drawn) [Example 27, 2-(2-hydroxycyclohexyl)-5-{[4-(trifluoromethyl)piperidin-1-yl]methyl}-1,2-dihydro-3H-benzo[e]isoindol-3-one] was run?
Answer: 6.44

Question: How did the pEC50 turn out when `O=C1c2cc(CN3CC(O)C(F)C3)c3ccccc3c2CN1C1CCCCC1O` (stereo not drawn) [Example 28, 5-[(3-fluoro-4-hydroxypyrrolidin-1-yl)methyl]-2-(2-hydroxycyclohexyl)-1,2-dihydro-3H-benzo[e]isoindol-3-one] was run?
Answer: 5.92

Question: How did the pEC50 turn out when `O=C1c2cc(CN3CCCC3C(F)(F)F)c3ccccc3c2CN1C1CCCCC1O` (stereo not drawn) [Example 30, 2-(2-hydroxycyclohexyl)-5-{[2-(trifluoromethyl)pyrrolidin-1-yl]methyl}-1,2-dihydro-3H-benzo[e]isoindol-3-one] was run?
Answer: 5.57

Question: How did the pEC50 turn out when `O=C1c2cc(CN3CC[C@H](F)C3)c3ccccc3c2CN1C1CCCCC1O` (stereo partly drawn) [Example 32, 5-{[(3S)-3-fluoropyrrolidin-1-yl]methyl}-2-(2-hydroxycyclohexyl) 1,2-dihydro-3H-benzo[e]isoindol-3-one] was run?
Answer: 5.74

Question: How did the pEC50 turn out when `O=C1c2cc(CN3CCC(F)(F)C3)c3ccccc3c2CN1C1CCCCC1O` (stereo not drawn) [Example 33, 5-[(3,3-difluoropyrrolidin-1-yl)methyl]-2-(2-hydroxycyclohexyl)-1,2-dihydro-3H-benzo[e]isoindol-3-one] was run?
Answer: 6.62

Question: With `O=C1c2cc(CN3CCN(CC(F)(F)F)CC3)c3ccccc3c2CN1C1CCCCC1O` (stereo not drawn) [Example 34, 2-(2-hydroxycyclohexyl)-5-{[4-(2,2,2-trifluoroethyl)piperazin-1-yl]methyl}-1,2-dihydro-3H-benzo[e]isoindol-3-one] as the compound, how does the pEC50 read?
Answer: 5.72

Question: How did the pEC50 turn out when `CC1(O)CCN(Cc2cc3c(c4ccccc24)CN(C2CCCCC2O)C3=O)CC1` (stereo not drawn) [Example 37, 2-(2-hydroxycyclohexyl)-5-[(4-hydroxy-4-methylpiperidin-1-yl)methyl]-1,2-dihydro-3H-benzo[e]isoindol-3-one] was run?
Answer: < 5.96

Question: How did the pEC50 turn out when `CC1(C)CCN(Cc2cc3c(c4ccccc24)CN(C2CCCCC2O)C3=O)CC1` (stereo not drawn) [Example 38, 5-[(4,4-dimethylpiperidin-1-yl)methyl]-2-(2-hydroxycyclohexyl)-1,2-dihydro-3H-benzo[e]isoindol-3-one] was run?
Answer: 6.17

Question: `O=C1c2cc(CN3CCC(C4CC4)CC3)c3ccccc3c2CN1C1CCCCC1O` (stereo not drawn) [Example 39, 5-[(4-cyclopropylpiperidin-1-yl)methyl]-2-(2-hydroxycyclohexyl)-1,2-dihydro-3H-benzo[e]isoindol-3-one] was tested. Which pEC50 did it give?
Answer: 5.28

Question: How did the pEC50 turn out when `O=C1c2cc(CN3CCC4(CC3)COc3ccccc34)c3ccccc3c2CN1C1CCCCC1O` (stereo not drawn) [Example 40, 2-(2-hydroxycyclohexyl)-5-(1′H-spiro[1-benzofuran-3,4′-piperidin]-1′-ylmethyl)-1,2-dihydro-3H-benzo[e]isoindol-3-one] was run?
Answer: 6.14

Question: With `O=C1c2cc(CN3CCC(c4ccccc4)CC3)c3ccccc3c2CN1C1CCCCC1O` (stereo not drawn) [Example 41, 2-(2-hydroxycyclohexyl)-5-[(4-phenylpiperidin-1-yl)methyl]-1,2-dihydro-3H-benzo[e]isoindol-3-one] as the compound, how does the pEC50 read?
Answer: 5.85

Question: With `O=C1c2cc(CN3CCC(c4ccncc4)CC3)c3ccccc3c2CN1C1CCCCC1O` (stereo not drawn) [Example 42, 2-(2-hydroxycyclohexyl)-5-[(4-(4-pyridinyl)piperidin-1-yl)methyl]-1,2-dihydro-3H-benzo[e]isoindol-3-one] as the compound, how does the pEC50 read?
Answer: 6.62
